The record followed here is PMC4666032, “KPT-330, a potent and selective exportin-1 (XPO-1) inhibitor, shows antitumor effects modulating the expression of cyclin D1 and survivin in prostate cancer models” (BMC Cancer, 2015).

What all share (assay type): cell-based
In assay [1] the test system is LAPC-4. Briefly: Growth/viability assay, IC50 at 72 h. Conditions: Homo sapiens. From the text: (§1) Four commercial (LnCaP, 22rv1, DU145 and PC3) and twelve non-commercial (LAPC-4 [44], CWR22, PCb2 [45], PC3Lymphnode, PC3M, PC3M-pro4 [46] and PC3M-Ln4 [47], LnCaP-104S [47], LnCaP104R1 [47], LnCaP-C81 [47], C4-2B [48], VCAP [49] and DuCaP [[49]) cell lines were selected for the in vitro experimental studies for their biological characteristics: LAPC-4 (Androgen receptor [AR] positive, androgen dependent with low Akt/mTOR activities, p53 wt); LnCaP (AR positive, androgen dependent with high Akt/mTOR activities, p53 wt); LnCaP-C81 and LnCaP-C4-2B (AR positive, androgen independent with high Akt/mTOR activities, p53 wt); 22rv1 (AR positive, androgen independent with low Akt/mTOR activities, p53 wt); PC3 (AR negative, with high Akt/mTOR activities and no p53 function (p53 del) and DU145 (AR negative, with low Akt/mTOR activities and mutant p53). PC3 and DU145 have been also transfected with AR to obtain PC3AR [50] and DU-AR [51]. Benign prostatic hyperplasia line (BPH1), and Prostatic epithelial lines (EPN and RWPE-1) were used as non-neoplastic controls. Cells were routinely cultured in appropriate medium supplemented with 10 % fetal bovine serum (FBS), 1 % pen-strep and 1 % L-glutamine (Invitrogen Corporation, Carlsbad, CA). To minimize the risk to work with misidentified and/or contaminated cell lines, DNA profiling was periodically carried out in-house to authenticate cell cultures. DNA was isolated from cell lines using a standard DNA isolation kit. STR profiling was performed by using GenePrint® 10 System (Promega Corporation, Madison, WI). An eight-capillary 3500 Genetic Analyzer (Applied Biosystems Life Technologies Europe BV, Monza, Italy) was used to separate and identify alleles using standard procedures. GenePrint® 10 System allows co-amplification and detection of eight human loci required by the guidelines ASN-0002. For non-commercial cell lines, the authentication process was carried out by comparing STR-fingerprints with those published by Adri van Bokhoven and co-workers. In addition, cell lines were stocked at very low passages and used at <15-20 subcultures.
(§2) Cells were seeded at a density of 2 x 10^4 cells/mL in 24-well plates. Cells were left to attach and grow in 5 % FCS DMEM for 24 h. After this time, cells were maintained in the appropriate culture conditions. Morphological controls were performed every day with an inverted phase-contrast photomicroscope (Nikon Diaphot, Tokyo, Japan) before cell trypsinization and counting. Cells were trypsinized and resuspended in 1.0 ml of saline, then counted using a NucleoCounter™ NC-100 (automated cell counter systems, Chemotec, Gydevang, Denmark). The effect on cell proliferation was measured by taking the mean cell number with respect to controls over time for the different treatment groups.
(§3) Viable cells were counted by using the NucleoCounter™ NC-100 (automated cell counter systems, Chemotec, Cydevang, DK). Apoptosis was evaluated by using Tali® Apoptosis Kit - Annexin V Alexa Fluor® 488 & Propidium Iodide-based, (Life Technologies Italia, Monza, Italy). Stained cells were then measured on a Tali® Image-Based Cytometer. Apoptosis was further confirmed by FACS analysis following the instructions of the manufacturer.
(§4) Six SINE analogs KPT-127, KPT-185, KPT-205, KPT-227, KPT251 and KPT-330 sharing a trifluoromethyl phenyl triazole scaffold, were investigated for their growth inhibitory and apoptotic potential in our PCa cell panel. Therefore, the effects of these XPO1 inhibitors were evaluated on the growth of PCa cell lines performing dose- and time-dependent studies. To examine the dose-dependent effects of these compounds, we treated cells with varying doses of the compounds (0, 1, 10, 50, 100, 500 and 1000 nM) and assessed viability at 72 hours after treatment. The IC50 for each compound was then calculated. […]

Assay [2] relates to RWPE-1. Briefly: Growth/viability assay, IC50 at 72 h. Conditions: Homo sapiens; RWPE-1, Fig. 2g.
Excerpt: as §1, §2, §3, §4

Assay [3] relates to DU-AR. Briefly: Growth/viability assay, IC50 at 72 h. The note with it: Homo sapiens, Fig. 2g.
Excerpt: as §1, §2, §3, §4

Assay [4] concerns PC3M-pro4. Briefly: Growth/viability assay, IC50 at 72 h. The note with it: Homo sapiens; PC3M-pro4, Fig. 2g.
Excerpt: as §1, §2, §3, §4

Assay [5] relates to 22rv1. Kind of assay: Growth/viability assay, IC50 at 72 h. The note with it: Homo sapiens.
Excerpt: as §1, §2, §3, §4

Assay [6] concerns EPN. Kind of assay: Growth/viability assay, IC50 at 72 h. The note with it: Homo sapiens, Fig. 2g.
Excerpt: as §1, §2, §3, §4

Assay [7] has as its system PC3. Briefly: Growth/viability assay, IC50 at 72 h. The note with it: Homo sapiens, PC-3.
Excerpt: as §1, §2, §3, §4

Assay [8] relates to LnCaP. Briefly: Growth/viability assay, IC50 at 72 h. The note with it: Homo sapiens.
Excerpt: as §1, §2, §3, §4

Assay [9] has as its system C4-2B. Briefly: Growth/viability assay, IC50 at 72 h. Conditions: Homo sapiens, Fig. 2g.
Excerpt: as §1, §2, §3, §4

For assay [10], the system named is DU145. Briefly: Growth/viability assay, IC50 at 72 h. The note with it: Homo sapiens, DU-145; DU145, Fig. 2g.
Excerpt: as §1, §2, §3, §4

Assay [11] deals with DuCaP. Kind of assay: Growth/viability assay, IC50 at 72 h. The note with it: Homo sapiens, Fig. 2g.
Excerpt: as §1, §2, §3, §4

Assay [12] relates to PCb2. Kind of assay: Growth/viability assay, IC50 at 72 h. The note with it: Homo sapiens; PCb2, Fig. 2g.
Excerpt: as §1, §2, §3, §4

The test system of assay [13] is LnCaP104R1. Kind of assay: Growth/viability assay, IC50 at 72 h. Conditions: Homo sapiens; 104R1, Fig. 2g.
Excerpt: as §1, §2, §3, §4

For assay [14], the system named is VCaP. Briefly: Growth/viability assay, IC50 at 72 h. The note with it: Homo sapiens, Fig. 2g.
Excerpt: as §1, §2, §3, §4

Assay [15] deals with PC3M-Ln4. Kind of assay: Growth/viability assay, IC50 at 72 h. The note with it: Homo sapiens; PC3M-Ln4, Fig. 2g.
Excerpt: as §1, §2, §3, §4

The subject of assay [16] is LnCaP-104S. Kind of assay: Growth/viability assay, IC50 at 72 h. Conditions: Homo sapiens, Fig. 2g.
Excerpt: as §1, §2, §3, §4

The subject of assay [17] is LnCaP-C81. Briefly: Growth/viability assay, IC50 at 72 h. Conditions: Homo sapiens; C-81, Fig. 2g.
Excerpt: as §1, §2, §3, §4

Assay [18] deals with BPH-1. Briefly: Growth/viability assay, IC50 at 72 h. The note with it: Homo sapiens.
Excerpt: as §1, §2, §3, §4

For assay [19], the system named is PC3AR. Briefly: Growth/viability assay, IC50 at 72 h. Conditions: Homo sapiens, PC3/AR, Fig. 2g.
Excerpt: as §1, §2, §3, §4

In assay [20] the test system is CWR22. Briefly: Growth/viability assay, IC50 at 72 h. Conditions: Homo sapiens; CWR22, Fig. 2g.
Excerpt: as §1, §2, §3, §4

For assay [21], the system named is PCa cell lines. Briefly: Growth inhibition across the PCa cell panel. Conditions: Homo sapiens; 72 hours, range across the cell panel; read-out: IC50 values, range over PCa cell lines.
Excerpt: as §1, with “STR profiling was performed by using GenePrint® 10 System (Promega Corporation, Madison, WI). An eight-capillary 3500 Genetic Analyzer (Applied Biosystems Life Technologies Europe BV, Monza, Italy) was used to separate and identify alleles using standard procedures. GenePrint® 10 System allows co-amplification and detection of eight human loci required by the guidelines ASN-0002. For non-commercial cell lines, the authentication process was carried out by comparing STR-fingerprints with those published by Adri van Bokhoven and co-workers. In addition, cell lines were stocked at very low passages and used at <15-20 subcultures.” left out
Cells were seeded at a density of 2 x 10^4 cells/mL in 24-well plates. […] Cells were trypsinized and resuspended in 1.0 ml of saline, then counted using a NucleoCounter™ NC-100 (automated cell counter systems, Chemotec, Gydevang, Denmark). The effect on cell proliferation was measured by taking the mean cell number with respect to controls over time for the different treatment groups.
Viable cells were counted by using the NucleoCounter™ NC-100 (automated cell counter systems, Chemotec, Cydevang, DK). Apoptosis was evaluated by using Tali® Apoptosis Kit - Annexin V Alexa Fluor® 488 & Propidium Iodide-based, (Life Technologies Italia, Monza, Italy). Stained cells were then measured on a Tali® Image-Based Cytometer. […]
as §4

Molecules are shown by their SMILES.

What is called IC50 is the concentration that gives 50% inhibition. Turning to `FC(F)(F)c1cc(-c2ncn(/C=C\c3nnco3)n2)cc(C(F)(F)F)c1` [KPT-251], the IC50 in assay [1] (LAPC4, LAPC-4, Fig. 2g) is 628 nM; in assay [1] (LAPC4, 72 hours, Fig. 2a-f), 628 ± 123 nM; in assay [2] it was 1000 nM; in [3] it was 300 nM; in [4], 355 nM; in assay [5] (22rv1, 72 hours, Fig. 2a-f), 361 ± 59 nM. For the same molecule, the IC50 in assay [5] (22rv1, Fig. 2g) amounted to 361 nM; in assay [6], 1000 nM; in assay [7] (PC3, 72 hours, Fig. 2a-f), 380 ± 39 nM; in assay [7] (PC3, Fig. 2g), 300 nM; in [8] (72 hours, Fig. 2a-f), 257 ± 82 nM; in assay [8] (Fig. 2g), 257 nM. Further, the IC50 was 200 nM in assay [9]; 360 nM in assay [10]; 210 nM in assay [11]; 320 nM in [12]; 270 nM in [13]; 440 nM in assay [14]. For the same molecule, the IC50 was 210 nM in assay [15]; 200 nM in assay [16]; 240 nM in assay [17]; above 1000 nM in assay [18] (BPH-1, BPH1, Fig. 2g); above 1000 nM in [18] (BPH-1, 72 hours, Fig. 2a-f); 260 nM in assay [19]. For the same molecule, the concentration for half-maximal inhibition (IC50) in assay [20] was 480 nM; in assay [21], 150 to 300 nM.
Turning to `O=C(/C=C\n1cnc(-c2cc(C(F)(F)F)cc(C(F)(F)F)c2)n1)NNc1cnccn1` [KPT-330], the half-inhibitory concentration (IC50) amounted to 365 nM in [1] (LAPC4, LAPC-4, Fig. 2g); 1000 nM in assay [2]; 124 nM in assay [3]; 118 nM in assay [4]; 102 nM in [5] (22rv1, Fig. 2g); 800 nM in assay [6]. The 50% inhibitory concentration (IC50) in assay [7] (PC3, Fig. 2g) is 103 nM; in [8] (Fig. 2g), 171 nM; in [9], 66 nM; in assay [10] it was 105 nM; in assay [11] it was 160 nM; in assay [12], 114 nM. In addition, the IC50 in assay [13] is 83 nM; in assay [14], 120 nM; in [15], 90 nM; in assay [16], 130 nM; in assay [17], 80 nM; in assay [18] (BPH-1, BPH1, Fig. 2g), above 1000 nM. The IC50 is above 1000 nM in assay [18] (BPH-1, 72 hours, Fig. 2a-f); 122 nM in [19]; 160 nM in assay [20]; 43 to 201 nM in [21].
